Laboratory results as given in the METLIN SMRT retention time set (Domingo-Almenara et al. 2019).

Assay: gradient 5% acetonitrile 3 min, to 50% in 2 min, to 85% in 15 min, held 3 min, 100 µL/min
Details: column: Zorbax Extend-C18 2.1 x 50 mm; eluents: water / acetonitrile, 0.1% formic acid
In short: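 Mixtures of ~100 pure standards were chromatographed on a Zorbax Extend-C18 column (2.1 × 50 mm, 1.8 μm) at 100 μL/min using water and acetonitrile, each with 0.1% formic acid. Detection used a quadrupole time-of-flight mass spectrometer in positive and negative ionization mode, and data collection spanned 3 months. Retention time was obtained from adduct peaks picked computationally and each checked manually.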

Structure (SMILES)	RP-LC retention time
Cc1cc(C(=O)N2CCCn3nc(-c4ccc(F)cc4)cc3C2)nn1C	629 s
CNC(=O)[C@@H]1CN(C(=O)Cn2c(=O)oc3ccccc32)C[C@H]1c1n[nH]c(C)n1	578 s
O=C(NCc1nnc(SCc2c(F)cccc2Cl)o1)c1cccc(C(F)(F)F)c1	933 s
CC1CCc2nc3ncn(CC(=O)NCCc4ccc(Cl)cc4)c(=O)c3cc2C1 (stereo unspecified)	756 s
CCCN1CCN(C(=O)C2CCCN(S(=O)(=O)c3cc(-c4noc(CC)n4)cs3)C2)CC1 (stereo unspecified)	665 s
O=C(NCC1CCCO1)c1csc(N2CCN(c3ccc(F)cc3)CC2)n1 (stereo unspecified)	902 s
CN(C)c1ccc(C(=O)N2CCC(c3cc(N)on3)CC2)cc1	614 s
COc1ccc(CNC(=O)C2CCCN(c3ncnc4c3oc3ccccc34)C2)c(OC)c1 (stereo unspecified)	754 s
O=C(NCC1(c2cccs2)CCOCC1)c1ccccc1F	763 s
Cc1oc(C2CCN(S(=O)(=O)CCc3ccccc3)CC2)nc1C(=O)N1CCCCC1	943 s
COC(=O)C1=C(C)NC2=C(C(=O)c3ccccc32)C1c1ccccc1OC (stereo unspecified)	901 s
Cn1c(N2CCC(C(=O)Nc3ccc(Cl)cc3)CC2)cc(=O)n(C)c1=O	732 s
CCn1ccc(NC(=O)Nc2cc(C)ccc2C)n1	869 s
COc1ccc(S(=O)(=O)N2CCCC(C(=O)Nc3ccc4c(c3)OCO4)C2)cc1OC (stereo unspecified)	838 s
CC(C)CC(=O)N1CCC(CC(=O)N2CCOCC2)C1 (stereo unspecified)	622 s
Cc1nn(CCC(=O)NC2CCCCCC2)c(=O)c2nn(-c3ccccc3)c(C)c12	830 s
CS(=O)(=O)N1CCCc2ccc(NS(=O)(=O)CCN3C(=O)CCCC3=O)cc21	622 s
CCCN1C(=O)c2cc(S(=O)(=O)Nc3ccccc3OC)ccc2Oc2cccnc21	1080 s
COC(=O)c1ccc2c(=O)n(-c3ccccc3)c(N3CCN(c4ccccn4)CC3)nc2c1	684 s
CC(C)Oc1ccc(CN2CCC3(CC2)CN(C)CC3c2nnc(C(C)C)o2)cc1 (stereo unspecified)	577 s
CC(C)n1nnc2cc(C(=O)N(C)C)ccc21	648 s
COc1ccccc1CNS(=O)(=O)c1ccc2c(c1)CCCC(=O)N2	721 s

Structure (SMILES)	RP-LC retention time
O=S(=O)(c1ccc(Br)cc1)N1CCCC(COCc2ccccc2)C1 (stereo unspecified)	1220 s
CCCCS(=O)(=O)N1CCN(c2ccc(Nc3cc(C)ccn3)nn2)CC1	585 s
O=C(Nc1ccccc1)C1CC(=O)N(c2ccc3c(c2)CCN3C(=O)C2CCC2)C1 (stereo unspecified)	792 s
O=C([C@@H]1C[C@H](F)CN1S(=O)(=O)c1cccc(F)c1)N1CCOCC1	676 s
Cc1noc(C)c1CNC(=O)c1cccc(OC(F)(F)F)c1	864 s
COc1cccc(CNC(=O)C2(c3ccc(NS(C)(=O)=O)cc3)CCCCC2)c1	867 s
CN(CCc1noc(COc2cccc(C(F)(F)F)c2)n1)C(=O)c1cccs1	941 s
CCNC(=O)CCc1nc2ccccc2n(CC(=O)Nc2cccc(C(=O)OCC)c2)c1=O	775 s
Cc1nc2cc(-c3noc(-c4ccc5c(c4)OCO5)n3)ccc2n(C)c1=O	920 s
O=C(Cc1cccs1)N1CCN(S(=O)(=O)c2cc(-c3noc(C4CCC4)n3)cs2)CC1	1010 s
COc1ccc(-c2nc(-c3nnn(-c4ccccc4)c3C)no2)c(OC)c1	1000 s
COc1ccc(S(=O)(=O)Nc2ccc3c(c2)N(C(C)=O)CC3)c(C)c1	722 s
O=C(Nc1ccccc1)c1nnc(CCC(=O)N2CCN(c3ccccn3)CC2)s1	617 s
COc1ccc(-c2nnc(Cc3nc(-c4ccccc4C)no3)o2)cc1	1010 s
COc1cccc(-n2c(N3CCCC(C(=O)Nc4ccc(F)c(F)c4)C3)nc3ccsc3c2=O)c1 (stereo unspecified)	993 s
COCc1noc([C@@H]2CN(Cc3cn(C)c4ccccc34)C[C@H]2CO)n1	616 s
CCn1c(CCc2ccccc2NS(=O)(=O)c2cc(F)ccc2F)nc2ccccc21	764 s
CN(C)c1ccc(NS(=O)(=O)c2c(F)c(F)c(F)c(F)c2F)cc1	869 s
CC(Oc1ccc(=O)n(-c2ccc(F)cc2)n1)C(=O)Nc1ccc(F)c(F)c1 (stereo unspecified)	816 s
O=C(Nc1cccc(-c2cn3c(n2)SCC3)c1)c1cc(-c2ccco2)on1	667 s
COc1ccc(CNC(=O)c2nnn(Cc3nc(-c4ccc(C)cc4)oc3C)c2N)cc1OC	935 s
CN(C)c1ccc(Nc2nc(-c3ccccc3)cs2)cc1	705 s

Structure (SMILES)	RP-LC retention time
Cc1noc2nc(C)n(CC(=O)NCc3ccc(F)cc3)c(=O)c12	735 s
Cc1cc(N2CCN(C(=O)c3ccco3)CC2)nc(N2CCCCC2)n1	626 s
NS(=O)(=O)c1ccc(NC(=O)C2CCCN(c3ncnc4c3nc3n4CCCCC3)C2)cc1 (stereo unspecified)	659 s
Cn1cnc2c(C(=O)N3CCN(c4ccccn4)CC3)nn(-c3ccccc3)c2c1=O	599 s
Cn1c(=O)cnc2ccc(N3CCCC3)nc21	884 s
Cc1c(C(=O)O)nnn1-c1ccc2c(c1)OCO2	639 s
COC(=O)c1ccc(CN2C(=O)C(O)(c3ccccc3)c3ccccc32)cc1 (stereo unspecified)	899 s
CCC(C)(C)NC(=O)C1CCN(S(=O)(=O)c2ccc3c(c2)NC(=O)CO3)CC1	745 s
O=C(Nc1cnn(-c2ncc(N3CCCC3)cn2)c1)Nc1ccccc1C(F)(F)F	850 s
COCCCNC(=O)Cn1nc2cc(C)nc(-c3ccc(C(F)(F)F)cc3)n2c1=O	765 s
CCCOc1nn(CCC)cc1C(=O)Nc1nccs1	865 s
CCN(Cc1ccccc1)C(=O)c1ncn2c1C(=O)N(CC)C(C)(C(=O)NC1CCCC1)C2 (stereo unspecified)	734 s
COc1ccc(CC(=O)NC(C(=O)Nc2nc3ccccc3[nH]2)C(C)C)c(Cl)c1 (stereo unspecified)	744 s
O=C(Nc1c(-c2ccc(F)cc2)nc2ccccn12)c1ccccc1	638 s
CC1(C(=O)NCc2ccccc2)CN(S(C)(=O)=O)CC(=O)N1CCc1ccc(Cl)cc1 (stereo unspecified)	874 s
CCC(C)NS(=O)(=O)c1cccc(-c2nc(-c3ccccc3)no2)c1 (stereo unspecified)	786 s
O=C(CN1C(=O)CSc2ccc(C(=O)N3CCCCC3)cc21)NC1CCCCCC1	839 s
COc1ccc2c(c1)C1(CCN(C(=O)c3ccc(OC)c(OC)c3)C1)C(=O)N2 (stereo unspecified)	674 s
COCCNc1nc(-c2ccc(OC)cc2)nc2ccccc12	644 s
CCOC(=O)c1c(S(=O)(=O)N2CCC(C(=O)Nc3cc(C)ccc3OC)CC2)c(C)n(C)c1C	936 s
Cc1cc(C)n(-c2ccc(=O)n(CCNC(=O)CCn3cnc4ccccc4c3=O)n2)n1	605 s
O=C(Cn1nc2nc(N3CCCC3)ccn2c1=O)Nc1ccc2c(c1)OCO2	647 s
